# Source: ChEMBL document CHEMBL2440076, “New triarylpyrazoles as broad-spectrum anticancer agents: design, synthesis, and biological evaluation” (Eur J Med Chem, 2013)
# Experiments:
# Type in all cases: functional
# [1] = test system: OVCAR-4; assay: Growth inhibition of human OVCAR4 cells assessed as cell growth at 3X10'-8 M after 48 hrs by sulforhodamine B assay; settings: OVCAR-4, 48 h, read-out: Activity
# [2] = test system: SW-620; assay: Growth inhibition of human SW620 cells assessed as cell growth at 3X10'-8 M after 48 hrs by sulforhodamine B assay; settings: SW-620, 48 h, read-out: Activity
# [3] = test system: DU-145; assay: Growth inhibition of human DU145 cells assessed as cell growth at 3X10'-6 M after 48 hrs by sulforhodamine B assay; settings: DU-145, 48 h, read-out: Activity
# [4] = test system: HL-60(TB); assay: Growth inhibition of human HL-60(TB) cells assessed as cell growth at 3X10'-5 M after 48 hrs by sulforhodamine B assay; settings: HL-60, 48 h, read-out: Activity
# [5] = test system: NCI-H322M; assay: Growth inhibition of human NCI-H322M cells assessed as cell growth at 3X10'-9 M after 48 hrs by sulforhodamine B assay; settings: read-out: Activity
# [6] = test system: UACC-257; assay: Growth inhibition of human UACC257 cells assessed as cell growth at 3X10'-6 M after 48 hrs by sulforhodamine B assay; settings: UACC-257, 48 h, read-out: Activity
# [7] = test system: SF-268; assay: Growth inhibition of human SF268 cells assessed as cell growth at 3X10'-6 M after 48 hrs by sulforhodamine B assay; settings: SF-268, 48 h, read-out: Activity
# [8] = test system: SNB-19; assay: Growth inhibition of human SNB19 cells assessed as cell growth at 3X10'-7 M after 48 hrs by sulforhodamine B assay; settings: SNB-19, 48 h, read-out: Activity
# [9] = test system: Malme-3M; assay: Growth inhibition of human MALME-3M cells assessed as cell growth at 3X10'-8 M after 48 hrs by sulforhodamine B assay; settings: read-out: Activity
# [10] = test system: CCRF-CEM; assay: Growth inhibition of human CCRF-CEM cells assessed as cell growth at 3X10'-9 M after 48 hrs by sulforhodamine B assay; settings: read-out: Activity
# [11] = test system: K562; assay: Growth inhibition of human K562 cells assessed as cell growth at 3X10'-5 M after 48 hrs by sulforhodamine B assay; settings: K562, 48 h, read-out: Activity
# [12] = test system: CAKI-1; assay: Growth inhibition of human CAKI-1 cells assessed as cell growth at 3X10'-7 M after 48 hrs by sulforhodamine B assay; settings: CAKI-1, 48 h, read-out: Activity
# [13] = test system: SK-MEL-2; assay: Growth inhibition of human SK-MEL-2 cells assessed as cell growth at 3X10'-6 M after 48 hrs by sulforhodamine B assay; settings: SK-MEL-2, 48 h, read-out: Activity
# [14] = test system: HOP-92; assay: Growth inhibition of human HOP92 cells assessed as cell growth at 3X10'-9 M after 48 hrs by sulforhodamine B assay; settings: HOP-92, 48 h, read-out: Activity
# [15] = test system: RPMI-8226; assay: Growth inhibition of human RPMI8226 cells assessed as cell growth at 3X10'-7 M after 48 hrs by sulforhodamine B assay; settings: RPMI-8226, 48 h, read-out: Activity
# [16] = test system: NCI-H522; assay: Growth inhibition of human NCI-H522 cells assessed as cell growth at 3X10'-6 M after 48 hrs by sulforhodamine B assay; settings: NCI-H522, 48 h, read-out: Activity
# [17] = test system: SNB-75; assay: Growth inhibition of human SNB75 cells assessed as cell growth at 3X10'-8 M after 48 hrs by sulforhodamine B assay; settings: SNB-75, 48 h, read-out: Activity
# [18] = test system: NCI-H522; assay: Growth inhibition of human NCI-H522 cells assessed as cell growth at 3X10'-8 M after 48 hrs by sulforhodamine B assay; settings: NCI-H522, 48 h, read-out: Activity
# [19] = test system: OVCAR-8; assay: Growth inhibition of human OVCAR8 cells assessed as cell growth at 3X10'-6 M after 48 hrs by sulforhodamine B assay; settings: OVCAR-8, 48 h, read-out: Activity
# [20] = test system: ACHN; assay: Growth inhibition of human ACHN cells assessed as cell growth at 3X10'-7 M after 48 hrs by sulforhodamine B assay; settings: read-out: Activity
# [21] = test system: SF-295; assay: Growth inhibition of human SF295 cells assessed as cell growth at 3X10'-9 M after 48 hrs by sulforhodamine B assay; settings: SF-295, 48 h, read-out: Activity
# [22] = Growth inhibition of human HCC2998 cells assessed as cell growth at 3X10'-8 M after 48 hrs by sulforhodamine B assay; settings: HCC 2998, 48 h, read-out: Activity
# [23] = test system: ACHN; assay: Growth inhibition of human ACHN cells assessed as cell growth at 3X10'-8 M after 48 hrs by sulforhodamine B assay; settings: read-out: Activity
# [24] = test system: IGROV-1; assay: Growth inhibition of human IGROV1 cells assessed as cell growth at 3X10'-9 M after 48 hrs by sulforhodamine B assay; settings: IGROV-1, 48 h, read-out: Activity
# [25] = test system: TK-10; assay: Growth inhibition of human TK10 cells assessed as cell growth at 3X10'-5 M after 48 hrs by sulforhodamine B assay; settings: TK-10, 48 h, read-out: Activity
# [26] = test system: CAKI-1; assay: Growth inhibition of human CAKI-1 cells assessed as cell growth at 3X10'-9 M after 48 hrs by sulforhodamine B assay; settings: CAKI-1, 48 h, read-out: Activity
# [27] = test system: MDA-MB-231; assay: Growth inhibition of human MDA-MB-231 cells assessed as cell growth at 3X10'-6 M after 48 hrs by sulforhodamine B assay; settings: MDA-MB-231, 48 h, read-out: Activity
# [28] = test system: T47D; assay: Growth inhibition of human T47D cells assessed as cell growth at 3X10'-7 M after 48 hrs by sulforhodamine B assay; settings: read-out: Activity
# [29] = test system: MOLT-4; assay: Growth inhibition of human MOLT4 cells assessed as cell growth at 3X10'-5 M after 48 hrs by sulforhodamine B assay; settings: MOLT-4, 48 h, read-out: Activity
# [30] = test system: COLO 205; assay: Growth inhibition of human COLO205 cells assessed as cell growth at 3X10'-5 M after 48 hrs by sulforhodamine B assay; settings: COLO 205, 48 h, read-out: Activity
# [31] = test system: SK-MEL-5; assay: Growth inhibition of human SK-MEL-5 cells assessed as cell growth at 3X10'-7 M after 48 hrs by sulforhodamine B assay; settings: SK-MEL-5, 48 h, read-out: Activity
# [32] = Growth inhibition of human HCC2998 cells assessed as cell growth at 3X10'-9 M after 48 hrs by sulforhodamine B assay; settings: HCC 2998, 48 h, read-out: Activity
# [33] = test system: A549; assay: Growth inhibition of human A549/ATCC cells assessed as cell growth at 3X10'-9 M after 48 hrs by sulforhodamine B assay; settings: A549, 48 h, read-out: Activity
# [34] = test system: OVCAR-8; assay: Growth inhibition of human OVCAR8 cells assessed as cell growth at 3X10'-5 M after 48 hrs by sulforhodamine B assay; settings: OVCAR-8, 48 h, read-out: Activity
# [35] = test system: T47D; assay: Growth inhibition of human T47D cells assessed as cell growth at 3X10'-6 M after 48 hrs by sulforhodamine B assay; settings: read-out: Activity
# [36] = test system: RXF 393; assay: Growth inhibition of human RXF393 cells assessed as cell growth at 3X10'-8 M after 48 hrs by sulforhodamine B assay; settings: RXF 393, 48 h, read-out: Activity
Compound,growth at 0.03 µM [1] [%],growth at 0.03 µM [2] [%],growth at 3 µM [3] [%],growth at 30 µM [4] [%],growth at 0.003 µM [5] [%],growth at 3 µM [6] [%],growth at 3 µM [7] [%],growth at 0.3 µM [8] [%],growth at 0.03 µM [9] [%],growth at 0.003 µM [10] [%],growth at 30 µM [11] [%],growth at 0.3 µM [12] [%],growth at 3 µM [13] [%],growth at 0.003 µM [14] [%],growth at 0.3 µM [15] [%],growth at 3 µM [16] [%],growth at 0.03 µM [17] [%],growth at 0.03 µM [18] [%],growth at 3 µM [19] [%],growth at 0.3 µM [20] [%],further results
COc1cc(-c2nn(-c3cccc(NC(=O)Nc4ccc(Cl)c(C(F)(F)F)c4)c3)cc2-c2ccncc2)ccc1Cl,96,100,23,6,93,20,25,94,102,98,1,93,-12,68,87,8,93,104,5,97,growth at 0.003 µM [21]: 92%; growth at 0.03 µM [22]: 107%; growth at 0.03 µM [23]: 98%; growth at 0.003 µM [24]: 110%; growth at 30 µM [25]: -15%; growth at 0.003 µM [26]: 92%; growth at 3 µM [27]: -9%; growth at 0.3 µM [28]: 95%; growth at 30 µM [29]: -15%; growth at 30 µM [30]: -94%; growth at 0.3 µM [31]: 87%; growth at 0.003 µM [32]: 102%; growth at 0.003 µM [33]: 95%; growth at 30 µM [34]: -13%; growth at 3 µM [35]: 18%; growth at 0.03 µM [36]: 93%
O=C(Nc1cccc(-n2cc(-c3ccncc3)c(-c3ccc(Cl)c(O)c3)n2)c1)Nc1cccc(C(F)(F)F)c1,107,95,33,1,95,60,37,96,82,97,6,91,35,85,90,25,94,90,31,94,growth at 0.003 µM [21]: 94%; growth at 0.03 µM [22]: 97%; growth at 0.03 µM [23]: 101%; growth at 0.003 µM [24]: 98%; growth at 30 µM [25]: 7%; growth at 0.003 µM [26]: 98%; growth at 3 µM [27]: 52%; growth at 0.3 µM [28]: 97%; growth at 30 µM [29]: 8%; growth at 30 µM [30]: -14%; growth at 0.3 µM [31]: 99%; growth at 0.003 µM [32]: 97%; growth at 0.003 µM [33]: 97%; growth at 30 µM [34]: 7%; growth at 3 µM [35]: 44%; growth at 0.03 µM [36]: 97%
